Entries after “also recorded” stand apart in the source; their conditions may differ.
Legend:
Type in all cases: cell-based
[1] = test system: FGF-1-induced differentiation of human subcutaneous preadipocytes; test: PLC inhibition of FGF-1-induced differentiation (G3PDH activity); settings: inhibitor present during replication phase, differentiation phase or both, SFM including rosiglitazone
Protocol: Human subcutaneous preadipocytes were isolated and subcultured in SCM in the presence and absence of FGF-1 with and without the PLC inhibitor U-73122 (Calbiochem). Cells were then allowed to reach confluence and differentiated using the standard chemically-modified SFM including rosiglitazone in the presence and absence of FGF1 with and without U-73122. Differentiation was assessed by G3PDH activity.

[2] = test system: PLCγ2; test: PLCγ expression in human preadipocytes (indirect immunofluorescence, Western blot); settings: grown to confluence in SCM + FGF-1 vs SCM alone; immunofluorescence and Western blot
Protocol: Expression of phospholipase Cγ2 (PLCγ2) protein is analyzed using Western blotting with immunofluorescent labeling procedures using a monoclonal anti-PLCγ2 antibody (Santa Cruz sc-5283).
Human preadipocytes were cultured in SCM+/−FGF-1 in 24-well plates. PLCγ expression was examined by indirect immuno-fluorescence. Non-immune primary and secondary antibody-only controls gave no staining.

[3] = test system: human omental and subcutaneous preadipocytes; test: Differentiation of human preadipocytes in serum-containing medium (cytoplasmic lipid accumulation); settings: subcultured in SCM+FGF-1, differentiated in SCM plus insulin and (days 1-3) dexamethasone and rosiglitazone; vs SCM alone
Source text: A standard requirement of human preadipocyte differentiation in vitro is the obligatory withdrawal of serum. This contrasts with the murine adipocyte cell lines (e.g., 3T3-L1) that have high differentiation potential in SCM. It is assumed that the culture system developed for the human cells either induces down-regulation of factors necessary for differentiation, or promotes the expression of anti-differentiative factors (or both). In these experiments human omental and subcutaneous preadipocytes were isolated and subcultured in the presence of FGF-1. Cells were then differentiated in SCM plus insulin and (days 1-3) dexamethasone and rosiglitazone.

[4] = test system: human preadipocytes (omental and subcutaneous); test: Preadipocyte differentiation assessed by G3PDH activity; settings: for adipogenic effect of FGF present during replication and/or differentiation (combination treatments): SCM +/- FGF during replication, SFM+rosiglitazone +/- FGF during differentiation, G3PDH activity; for preadipocyte differentiation / adipogenic effect (summary statements): human preadipocytes cultured with the growth factor; for differentiation of human preadipocytes after exposure to growth factor or MVEC-conditioned medium during subculture: subcultured up to 2 months with growth factor or EC-DMEM, differentiated in serum-free medium including 0.10M Rosiglitazone, G3PDH assay at day 21
Protocol: Activity is assessed as previously described (Adams et al. J Clin Invest 100: 3149-53 1998) (Hutley et al in Primary Mesenchymal Cells 1st ed. Kluwer Academic 5: 173-87 2001).
For differentiation experiments, preadipocytes were isolated and subcultured in endothelial cell-conditioned medium (EC-DMEM) or in the presence of growth factor for up to 2 months and then allowed to reach confluence in 6-well plates. Cells were then differentiated in serum-free, chemically modified differentiation medium including 0.10M Rosiglitazone. Differentiation was assessed at day 21 using a standard G3PDH assay.
Human omental and subcutaneous preadipocytes were isolated and subcultured in SCM in the presence and absence of FGF-1 or FGF-2. Upon reaching confluence, the cells were differentiated in standard chemically modified SFM+rosiglitazone in the presence and absence of FGF-1 or FGF-2. Differentiation was assessed by G3PDH activity. […] Presence throughout both processes was additive.

[5] = test system: subcutaneous human preadipocytes gene expression; test: Microarray analysis of human preadipocyte gene expression (Affymetrix); settings: confluent preadipocytes in SCM+FGF1 vs SCM; change of at least 50% (CV<5%)
Protocol: Total RNA was isolated from confluent subcutaneous human preadipocytes isolated and grown in either SCM (control) or SCM+FGF1. cRNA was prepared and hybridized to chips and subsequently analyzed using the Affymetrix® system. Each treatment was represented by duplicate samples and two independent experiments were performed. Gene expression was considered to be influenced by FGF-1 if expression was consistently (CV<5%) increased or reduced by at least 50%.

[6] = test system: human preadipocytes (subcutaneous and omental); test: Preadipocyte proliferation assay (formazan/MTS colorimetric assay); settings: for proliferation of human preadipocytes in response to growth factor: SCM + growth factors at 1 ng/mL for 48 hrs, relative to SCM control, MTS assay
Protocol: Subcutaneous and omental preadipocytes and human skin fibroblasts are plated separately at about 1×10^3 cells/well (subconfluent) in 96-well plates in DMEM/Ham's F12 1:1 plus 10% FCS (PA growth medium) and allowed to adhere at 37° C., 5% CO2 for 16-20 hrs. The medium is then changed to EC growth medium which is conditioned (see above) by exposure to either confluent subcutaneous or omental MVEC, human skin fibroblasts (HSF), or wells containing no cells (blank control) (each treatment is done in quadruplicate). In separate experiments subcutaneous and omental PAs are plated as above and subsequently treated with either S MVEC, O MVEC, human dermal EC(CADMEC) conditioned media, fresh EC growth medium, or blank control. After 48 hrs, preadipocyte cell number is assessed using a formazan colorimetric assay (Promega). The water soluble tetrazolium salt 3-(4,5-dimethylthiazol-2-yl)-5-(3-carboxymethoxyphenyl)-2-(4-sulfophenyl)-2H-tetrazolium (MTS) is added to each well at a concentration of 200 μg/mL. After incubation at 37° C. for 4 hrs, absorbance at 490 nm is measured using a Bio-Rad 3550 microplate reader. The validity of this assay is tested in two ways; 1) preadipocytes were plated at 250; 500; 1000; 2000; 4000 cells per well (in quadruplicate) and absorbance is measured at 490 nm; 2) after measurement at A490 nm the cells are subsequently stained with propidium iodide and direct cell counts carried out using fluorescence microscopy.
Preadipocytes were isolated and plated in 96-well plates at 500 cells/well (sub-confluent) in serum containing medium for 12-18 hrs to allow adherence. Cells were then incubated in SCM+growth factors at 1 ng/mL for 48 hrs and a MTS proliferation assay (Promega) was performed.

Molecule: COc1ccc2c(c1)CC[C@@H]1[C@@H]2CC[C@]2(C)[C@@H](NCCCCCCN3C(=O)C=CC3=O)CC[C@@H]12 [U-73122]
- FGF-1-induced differentiation in the presence of PLC inhibitor [1]: significantly impaired

Molecule: FGF-1: acidic fibroblast growth factor (aFGF), also known as FGF-1
- PLCγ2 protein expression in human preadipocytes [2]: increased
- differentiation in the presence of serum (cytoplasmic lipid accumulation) [3]: significant differentiation
- differentiation potential of preadipocytes grown with purified FGF-1 ([4]; FGF-1 present from the time of isolation, compared with absence of FGF-1 or other MVEC-derived factors, data not shown): similar, but not additive, increase in differentiation potential
- adipogenic effect of FGF present during replication and/or differentiation (combination treatments) [4]: adipogenic if present either during replication or during differentiation; also recorded: greater adipogenic effect than FGF-2
- preadipocyte differentiation / adipogenic effect (summary statements) [4]: significant positive effect on the differentiation; also recorded: dramatically increases potential for subsequent differentiation
- differentiation of human preadipocytes after exposure to growth factor or MVEC-conditioned medium during subculture [4]: more pronounced effect than FGF-2; also recorded: marked increase in differentiation
- C/EBPα gene expression [5]: upregulation
- FGFR-1 gene expression [5]: Up-regulation
- FGFR-2 gene expression [5]: Up-regulation
- FGFR-3 gene expression [5]: down-regulation
- PLCγ2 gene expression [5]: Increased expression
- PPARγ gene expression [5]: upregulation
- proliferation of human preadipocytes in response to growth factor [6]: marked increase in proliferation
- preadipocyte growth and replication (summary statements) ([6]; human preadipocytes cultured with the growth factor): markedly promoted their growth and replication; also recorded: promotes human preadipocyte replication

Molecule: FGF-2: basic FGF (also known as FGF-2)
- adipogenic effect of FGF present during replication and/or differentiation (combination treatments) [4]: adipogenic if present either during replication or during differentiation
- preadipocyte differentiation / adipogenic effect (summary statements) [4]: pro-adipogenic effect
- differentiation of human preadipocytes after exposure to growth factor or MVEC-conditioned medium during subculture [4]: greater that the effect seen with IGF-1; also recorded: marked increase in differentiation
- proliferation of human preadipocytes in response to growth factor [6]: marked increase in proliferation

Source: patent US20140221455A1, “DIFFERENTIATION MODULATING AGENTS AND USES THEREFOR” (Verva Pharmaceuticals, Inc., priority 2002, published 2014)
